How the values were obtained:
LPDE4 [1] = assay: Ability to inhibit low affinity LPDE4 (cAMP disappearance) versus competing for high affinity HPDE4 ([H3]rolipram binding); assay type: biochemical
Description: Advantageously the compounds of the invention are characterized by a selectivity toward LPDE4 higher than that toward HPDE4 as obtained by the determination of their IC50. In the case of LPDE4, the IC50 is the molar concentration of the test compound producing 50% inhibition of cAMP disappearance, assessed as described in Cortijo J et al., Br. J. Pharmacol., 1993, 108: 562-568, while in the case of HPDE4, the IC50 is the molar concentration of the test compound producing 50% inhibition of the binding of [H^3] rolipram, assessed as described in Duplantier A J et al., J. Med. Chem., 1996; 39: 120-125. Preferably the HPDE4/LPDE IC50 ratio for the compounds of the invention is higher than 10, more preferably higher than 100, even more preferably higher than 300.
The affinity toward LPDE4 and HPDE4 is assessed as previously described respectively in Cortijo J et al., Br. J. Pharmacol., 1993, 108: 562-568 and Duplantier A J et al., J. Med. Chem., 1996; 39: 120-125. The activity of compounds 1, 2, 4, 5, 6, and 7 is evaluated.

[2] = system: LPS-induced TNF-α release in peripheral blood mononuclear cells (PBMCs); assay: PDE4 inhibitory activity in the PBMCs assay (LPS-induced TNF-α release); assay type: cell-based; settings: PBMC; human PBMCs, LPS 3 ng/ml, 18 hours; read-out: IC50 in the PBMCs assay (50% inhibition of LPS-induced TNF-α release)
Description: The assay, which is based on the known inhibitory activity exerted by PDE4 inhibitors on the lipopolyshaccarides (LPS)-induced tumour necrosis factor-alpha (TNF-α release in peripheral blood mononuclear cells (PBMCs), is performed according to a method previously described (Hatzelmann A et al., J. Pharmacol. Exp. Ther., 2001; 297:267-279; and Draheim R et al., J. Pharmacol. Exp. Ther., 2004; 308:555-563. Cryopreserved human PBMCs, (100 μl/well) are incubated in 96-well plates (10^5 cells/well), for 30 minutes, in the presence or absence (50 microl) of the test compounds whose concentrations ranged from 10^−12 M to 10^−6 M. Subsequently, LPS (3 ng/ml) is added. After 18 hours of incubation at 37° C. in a humidified incubator under an atmosphere of 95% air and 5% CO2, culture medium is collected and TNF-α measured by ELISA.
The results are expressed as mean±95% confidence limits of the molar concentration of the test compound producing 50% inhibition of LPS-induced TNF-α release (IC50). […] The effects of the tested compounds are calculated as percentage of inhibition of TNF-α release, assuming LPS-induced TNF-α production in the absence of inhibitor compound as 100% and basal TNF-α production of PBMCs in the absence of LPS as 0%.

LPDE4 [3] = settings: literature, Giembycz et al. 2001; cited from earlier work
HPDE4 = settings: literature, Giembycz et al. 2001; cited from earlier work

inhibition of LPDE4 (affinity) (LPDE4 [1]) | Structure (SMILES) | IC50 [2] | HPDE4/LPDE4 ratio (LPDE4 [3]) | IC50 (LPDE4 [3]) | IC50 (HPDE4)
nanomolar affinity | COc1ccc(C(=Cc2c(Cl)cncc2Cl)OC(=O)c2ccccc2)c2c1oc1ccc([N+](=O)[O-])cc12 [Compound 1, Benzoic acid 2-(3,5-dichloro-pyridin-4-yl)-1-(4-methoxy-8-nitro-dibenzofuran-1-yl)-vinyl ester] | 1 to 150 nM |  |  | 
nanomolar affinity | COc1ccc(C(=Cc2c(Cl)cncc2Cl)OC(=O)c2ccccc2)c2c1oc1ccccc12 [Compound 2, Benzoic acid 2-(3,5-dichloro-pyridin-4-yl)-1-(4-methoxy-dibenzofuran-1-yl)-vinyl ester] | 1 to 150 nM |  |  | 
nanomolar affinity | COc1ccc(C(=Cc2c(Cl)c[n+]([O-])cc2Cl)OC(=O)c2ccccc2)c2c1oc1ccccc12 [Compound 7, Benzoic acid 2-(3,5-dichloro-1-oxy-pyridin-4-yl)-1-(4-methoxy-dibenzofuran-1-yl)-vinyl ester] | 1 to 150 nM |  |  | 
nanomolar affinity | COc1ccc(C(=Cc2c(Cl)cncc2Cl)OC(=O)c2ccccc2)c2c1oc1ccc(N)cc12 [Compound 4, Benzoic acid 2-(3,5-dichloro-pyridin-4-yl)-1-(4-methoxy-8-amino-dibenzofuran-1-yl)-vinyl ester] | 1 to 150 nM |  |  | 

The next lines start with the compound.

Structure (SMILES) | inhibition of LPDE4 (affinity) (LPDE4 [1]) | IC50 [2] | HPDE4/LPDE4 ratio (LPDE4 [3]) | IC50 (LPDE4 [3]) | IC50 (HPDE4)
COc1ccc(C(=Cc2c(Cl)c[n+]([O-])cc2Cl)OC(=O)c2ccccc2)c2c1oc1ccc([N+](=O)[O-])cc12 [Compound 6, Benzoic acid 2-(3,5-dichloro-1-oxy-pyridin-4-yl)-1-(4-methoxy-8-nitro-dibenzofuran-1-yl)-vinyl ester] | nanomolar affinity |  |  |  | 
COc1ccc([C@]2(C#N)CC[C@@H](C(=O)O)CC2)cc1OC1CCCC1 [cilomilast] |  |  | about 1.3 | 90 nM | 120 nM
COc1ccc(C(=Cc2c(Cl)cncc2Cl)OC(=O)c2ccccc2)c2c1oc1ccc(NS(C)(=O)=O)cc12 [Compound 5, Benzoic acid 2-(3,5-dichloro-pyridin-4-yl)-1-(8-methanesulfonylamino-4-methoxy-dibenzofuran-1-yl)-vinyl ester] | nanomolar affinity | 1 to 150 nM |  |  | 
